pIC50: −log10 of the molar value. Structures can show the parent of a compound that is named as a salt.
Molecular target: T1, HCV polymerase (Hepatitis C virus genotype 1b, UniProt P26663)
T1 construct: a region encoding NS5B (591 amino acids; J Virol 1991 Mar, 65(3), 1105-13) was amplified by PCR; 6 His (N); made in house; host or cells: Escherichia coli
Assay: biochemical
Settings: read-out: HCV polymerase inhibitory activity IC50

T1 sequence (P26663 2420-3010): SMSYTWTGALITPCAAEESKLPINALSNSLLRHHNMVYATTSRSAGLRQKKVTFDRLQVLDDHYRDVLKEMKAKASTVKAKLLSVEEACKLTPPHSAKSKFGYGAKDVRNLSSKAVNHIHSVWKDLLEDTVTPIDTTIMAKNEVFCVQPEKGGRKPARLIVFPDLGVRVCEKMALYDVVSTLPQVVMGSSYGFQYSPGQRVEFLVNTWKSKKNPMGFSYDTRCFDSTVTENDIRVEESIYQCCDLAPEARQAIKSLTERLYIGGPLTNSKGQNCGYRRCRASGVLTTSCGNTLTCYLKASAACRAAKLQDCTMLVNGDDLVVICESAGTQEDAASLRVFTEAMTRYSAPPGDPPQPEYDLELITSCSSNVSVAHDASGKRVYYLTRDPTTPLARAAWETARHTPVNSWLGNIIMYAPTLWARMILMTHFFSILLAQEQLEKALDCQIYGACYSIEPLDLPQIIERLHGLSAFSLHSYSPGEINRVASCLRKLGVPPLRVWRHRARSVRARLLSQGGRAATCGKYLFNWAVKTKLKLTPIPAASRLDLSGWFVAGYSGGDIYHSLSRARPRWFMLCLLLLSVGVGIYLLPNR

In the case of `Cc1cnc(-c2ccc(-c3ccc(Cl)cc3)c(COc3ccc(-c4nc5cc(C(=O)O)ccc5n4C4CCCCC4)cc3)c2)o1` [Example 365, 2-{4-[2-(4-chlorophenyl)-5-(5-methyloxazol-2-yl)benzyloxy]-phenyl}-1-cyclohexylbenzimidazole-5-carboxylic acid hydrochloride], the pIC50 was 7.70.
In the case of `CN(C)C(=O)c1cc(OCc2ccncc2)cc(Oc2ccc(-c3nc4cc(C(=O)O)ccc4n3C3CCCCC3)cc2)c1` [Example 259, 1-cyclohexyl-2-{4-[3-dimethylcarbamoyl-5-(4-pyridylmethoxy)-phenoxy]phenyl}benzimidazole-5-carboxylic acid dihydrochloride], the pIC50 was 7.00.
`CN(Cc1ccccc1)C(=O)c1ccc(-c2ccc(Cl)cc2)c(COc2ccc(-c3nc4cc(C(=O)O)ccc4n3C3CCCCC3)cc2)c1` [Example 319, 2-{4-[2-(4-chlorophenyl)-5-(N-benzyl-N-methylcarbamoyl)-benzyloxy]phenyl}-1-cyclohexylbenzimidazole-5-carboxylic acid hydrochloride] was tested, and the pIC50 was 7.52.
`CCCOc1ccccc1Oc1ccc(-c2nc3cc(C(=O)O)ccc3n2C2CCCCC2)cc1` [Example 110, 1-cyclohexyl-2-[4-(2-propoxyphenoxy)phenyl]benzimidazole-5-carboxylic acid] was tested, and the pIC50 was 6.62.
With `CC(C)(C)NS(=O)(=O)c1ccc(-c2ccc(Cl)cc2)c(COc2ccc(-c3nc4cc(C(=O)O)ccc4n3C3CCCCC3)cc2)c1` [Example 249, 2-{4-[3-(tert-butylsulfamoyl)-6-(4-chlorophenyl)benzyloxy]-phenyl}-1-cyclohexylbenzimidazole-5-carboxylic acid] the pIC50 was 7.66.
Work on `COc1ccccc1Oc1ccc(-c2nc3cc(C(=O)O)ccc3n2C2CCCCC2)cc1` [Example 108, 1-cyclohexyl-2-[4-(2-methoxyphenoxy)phenyl]benzimidazole-5-carboxylic acid] yielded a pIC50 of 6.68.
With `NC(=O)Nc1ccc(-c2ccc(Cl)cc2)c(COc2ccc(-c3nc4cc(C(=O)O)ccc4n3C3CCCCC3)c(F)c2)c1` [Example 393, 2-{4-[2-(4-chlorophenyl)-5-ureidobenzyloxy]-2-fluorophenyl}-1-cyclohexylbenzimidazole-5-carboxylic acid hydrochloride] the pIC50 was 7.96.
For `O=C(O)c1ccc2c(c1)nc(-c1ccc(OCc3cc(Cl)ccc3-c3ccccc3)cc1F)n2C1CCCCC1` [Example 146, 2-{4-(3-chloro-6-phenylbenzyloxy)-2-fluorophenyl}-1-cyclohexylbenzimidazole-5-carboxylic acid], the pIC50 was 7.37.
Work on `COc1cccc(CCOc2ccc(-c3nc4cc(C(=O)O)ccc4n3C3CCCCC3)cc2)c1` [Example 121, 1-cyclohexyl-2-{4-[2-(3-methoxyphenyl)ethoxy]phenyl}-benzimidazole-5-carboxylic acid] yielded a pIC50 of 6.72.
Molecule `N#Cc1ccc(-c2ccc(Cl)cc2)c(COc2ccc(-c3nc4cc(C(=O)O)ccc4n3C3CCCCC3)cc2)c1` [Example 299, 2-{4-[2-(4-chlorophenyl)-5-cyanobenzyloxy]phenyl}-1-cyclohexyl-benzimidazole-5-carboxylic acid] has a pIC50 of 7.74.
`CC(C)=CCOc1cccc(Oc2ccc(-c3nc4cc(C(=O)O)ccc4n3C3CCCCC3)cc2)c1` [Example 113, 1-cyclohexyl-2-{4-[3-(3-methyl-2-butenyloxy)phenoxy]phenyl}-benzimidazole-5-carboxylic acid] showed a pIC50 of 7.15.
For `O=C(O)c1ccc2c(c1)nc(-c1ccc(OCc3cc(C(=O)NCc4ccncc4)ccc3-c3ccc(Cl)cc3)cc1)n2C1CCCCC1` [Example 318, 2-{4-[2-(4-chlorophenyl)-5-(4-pyridylmethylcarbamoyl)-benzyloxy]phenyl}-1-cyclohexylbenzimidazole-5-carboxylic acid dihydrochloride], the pIC50 was 7.92.
`O=C(O[C@@H]1O[C@H](C(=O)O)[C@@H](O)[C@H](O)[C@H]1O)c1ccc2c(c1)nc(-c1ccc(OC(c3cccc(F)c3)c3cccc(F)c3)cc1F)n2C1CCCCC1` [Example 445, {[2-{4-[bis(3-fluorophenyl)methoxy]-2-fluorophenyl}-1-cyclohexylbenzimidazol-5-yl]carbonyl}-β-D-glucuronic acid] showed a pIC50 of 6.48.
In the case of `CC(C)CCOc1ccccc1Oc1ccc(-c2nc3cc(C(=O)O)ccc3n2C2CCCCC2)cc1` [Example 114, 1-cyclohexyl-2-[4-(2-isopentyloxyphenoxy)phenyl]benzimidazole-5-carboxylic acid], the pIC50 was 6.25.
Work on `Cc1nc(-c2ccc(C(=O)O)cc2)c(COc2ccc(-c3nc4cc(C(=O)O)ccc4n3C3CCCCC3)cc2)s1` [Example 255, 1-cyclohexyl-2-{4-[{4-(4-carboxyphenyl)-2-methyl-5-thiazolyl}-methoxy]phenyl}benzimidazole-5-carboxylic acid hydrochloride] yielded a pIC50 of 7.42.
In the case of `O=C(O)c1ccc2c(c1)nc(-c1ccc(OCCOc3ccccc3)cc1)n2C1CCCCC1` [Example 96, 1-cyclohexyl-2-{4-[2-(phenoxy)ethoxy]phenyl}benzimidazole-5-carboxylic acid], the pIC50 was 6.60.
For `CN(C)c1ccc(-c2ccc(Cl)cc2)c(COc2ccc(-c3nc4cc(C(=O)O)ccc4n3C3CCCCC3)cc2)c1` [Example 282, 2-{4-[2-(4-chlorophenyl)-5-dimethylaminobenzyloxy]phenyl}-1-cyclohexylbenzimidazole-5-carboxylic acid], the pIC50 was 7.72.
`O=C(O)CCc1ccc(-c2ccc(Cl)cc2COc2ccc(-c3nc4cc(C(=O)O)ccc4n3C3CCCCC3)cc2)cc1` [Example 293, 2-{4-[2-{4-(2-carboxyethyl)phenyl}-5-chlorobenzyloxy]phenyl}-1-cyclohexylbenzimidazole-5-carboxylic acid] was tested, and the pIC50 was 7.47.
`O=C(O)CNC(=O)c1ccc(-c2ccc(Cl)cc2)c(COc2ccc(-c3nc4cc(C(=O)O)ccc4n3C3CCCCC3)c(F)c2)c1` [Example 292, 2-{4-[3-(carboxymethylcarbamoyl)-6-(4-chlorophenyl)benzyloxy]-2-fluorophenyl}-1-cyclohexylbenzimidazole-5-carboxylic acid] gave a pIC50 of 7.82.
Work on `O=C(O)c1ccc2c(c1)nc(-c1ccc(Oc3ccc(OCc4ccccc4)cc3)cc1)n2C1CCCCC1` [Example 132, 2-[4-(4-benzyloxyphenoxy)phenyl]-1-cyclohexylbenzimidazole-5-carboxylic acid] yielded a pIC50 of 7.26.
For `O=C(O)c1ccc2c(c1)nc(-c1ccc(OCc3cc(Cl)ccc3-c3ccc(CO)cc3)cc1)n2C1CCCCC1` [Example 294, 2-{4-[3-chloro-6-(4-hydroxymethylphenyl)benzyloxy]phenyl}-1-cyclohexylbenzimidazole-5-carboxylic acid], the pIC50 was 7.49.
`CC(C)(C)OC(=O)N1CCC(COc2cccc(Oc3ccc(-c4nc5cc(C(=O)O)ccc5n4C4CCCCC4)cc3)c2)CC1` [Example 156, 2-{4-[3-{(1-tert-butoxycarbonyl-4-piperidyl)methoxy}phenoxy]-phenyl}-1-cyclohexylbenzimidazole-5-carboxylic acid] was tested, and the pIC50 was 6.64.
In the case of `CN(C)C(=O)c1ccc(-c2ccc(C(N)=O)cc2)c(COc2ccc(-c3nc4cc(C(=O)O)ccc4n3C3CCCCC3)cc2)c1` [Example 307, 2-{4-[2-(4-carbamoylphenyl)-5-(dimethylcarbamoyl)benzyloxy]-phenyl}-1-cyclohexylbenzimidazole-5-carboxylic acid], the pIC50 was 7.66.
Work on `Nc1nc(-c2ccc(-c3ccc(Cl)cc3)c(COc3ccc(-c4nc5cc(C(=O)O)ccc5n4C4CCCCC4)cc3)c2)cs1` [Example 358, 2-{4-[5-(2-aminothiazol-4-yl)-2-(4-chlorophenyl)benzyloxy]-phenyl}-1-cyclohexylbenzimidazole-5-carboxylic acid dihydrochloride] yielded a pIC50 of 7.77.
For `O=C(O)c1ccc2c(c1)nc(-c1ccc(Oc3cccc(O)c3)cc1)n2C1CCCCC1` [Example 107, 1-cyclohexyl-2-[4-(3-hydroxyphenoxy)phenyl]benzimidazole-5-carboxylic acid], the pIC50 was 6.96.
In the case of `O=C(O)c1ccc(COc2ccc(-c3nc4cc(C(=O)O)ccc4n3C3CCCC3)cc2)cc1` [Example 44, 2-[4-(4-carboxybenzyloxy)phenyl]-1-cyclopentylbenzimidazole-5-carboxylic acid], the pIC50 was 6.02.
`COc1ccc(-c2ccc(C(=O)O)cc2)c(COc2ccc(-c3nc4cc(C(=O)O)ccc4n3C3CCCCC3)cc2)c1` [Example 306, 2-{4-[2-(4-carboxyphenyl)-5-methoxybenzyloxy]phenyl}-1-cyclohexylbenzimidazole-5-carboxylic acid] was tested, and the pIC50 was 7.89.
`O=C(O)c1ccc2c(c1)nc(-c1ccc(OC3CCN(Cc4ccc(Cl)cc4)CC3)cc1)n2C1CCCCC1` [Example 223, 2-{4-[1-(4-chlorobenzyl)-4-piperidyloxy]phenyl}-1-cyclohexylbenzimidazole-5-carboxylic acid] was tested, and the pIC50 was 6.68.
Work on `O=C(O)c1ccc2c(c1)nc(-c1ccc(OCc3cc(N4CCNC4=O)ccc3-c3ccc(Cl)cc3)cc1F)n2C1CCCCC1` [Example 424, 2-{4-[2-(4-chlorophenyl)-5-(2-oxoimidazolidin-1-yl)benzyloxy]-2-fluorophenyl}-1-cyclohexylbenzimidazole-5-carboxylic acid hydrochloride] yielded a pIC50 of 7.70.
With `O=C(O)c1ccc2c(c1)nc(-c1ccc(Oc3cccc(-c4cc(Cl)cc(Cl)c4)c3)cc1)n2C1CCCCC1` [Example 222, 1-cyclohexyl-2-{4-[3-(3,5-dichlorophenyl)phenoxy]phenyl}-benzimidazole-5-carboxylic acid] the pIC50 was 7.39.
Work on `CNC(=O)c1ccc(-c2ccc(Cl)cc2)c(COc2ccc(-c3nc4cc(C(=O)OC)ccc4n3C3CCCCC3)c(F)c2)c1` [Example 314, methyl 2-{4-[2-(4-chlorophenyl)-5-(methylcarbamoyl)benzyloxy]-2-fluorophenyl}-1-cyclohexylbenzimidazole-5-carboxylate] yielded a pIC50 of 7.01.
Work on `O=C(O)c1ccc2c(c1)nc(-c1cc(C(c3cccc(F)c3)c3cccc(F)c3)c(O)cc1F)n2C1CCCCC1` [Example 440, 2-{5-[bis(3-fluorophenyl)methyl]-2-fluoro-4-hydroxyphenyl}-1-cyclohexylbenzimidazole-5-carboxylic acid] yielded a pIC50 of 7.15.
